Measured values: article PMC7375007 (Journal of clinical pharmacology, 2019)
Where two headings read alike, the source gives them in different places.

Legend:
[1] = Tacrolimus whole-blood trough concentration; assay type: in vivo, human (stable renal transplant recipients); conditions: human, oral
[2] = tacrolimus- and mycophenolic acid-treated patients; ELITE-SYMPHONY study; cited from earlier work
[3] = Gastrointestinal adverse effect evaluation; assay type: in vivo, human (stable renal transplant recipients); conditions: patients with score > 0
[4] = for Patients within or below the mycophenolic acid AUC0–12h target range: patients with mild gastrointestinal adverse effects (score 1–2); for Cmax / Tmax / AUC(0-t) / AUC / concentration at 12 h / clearance: human, plasma, oral; for AUC: Mycophenolic acid AUC6–12h, estimate of enterohepatic recirculation; for concentration at 12 h: Mycophenolic acid CP(12h); for clearance: Mycophenolic acid clearance; for Mycophenolic acid dose-normalized AUC0–12h: normalized to 1-mg mycophenolic acid dose equivalent
[5] = Enterohepatic circulation of mycophenolic acid; assay type: in vivo, human (stable renal transplant recipients); conditions: all patients
[6] = on tacrolimus and enteric-coated mycophenolate sodium
[7] = with tacrolimus and enteric-coated mycophenolate sodium, female (n = 29), steady state
[8] = with tacrolimus and enteric-coated mycophenolate sodium, male (n = 38), steady state

SMILES: C=CC[C@@H]1/C=C(\C)C[C@H](C)C[C@H](OC)[C@H]2O[C@@](O)(C(=O)C(=O)N3CCCC[C@H]3C(=O)O[C@H](/C(C)=C/[C@@H]3CC[C@@H](O)[C@H](OC)C3)[C@H](C)[C@@H](O)CC1=O)[C@H](C)C[C@@H]2OC [Tacrolimus]
- concentration at 0 h ([1]; female): 7.1 ± 1.9 ng/mL
- concentration at 0 h ([1]; male): 7.3 ± 2 ng/mL
- Diarrhea [2]: 25.3%

SMILES: COc1c(C)c2c(c(O)c1C/C=C(\C)CCC(=O)O)C(=O)OC2 [Mycophenolic acid]
- Gastrointestinal adverse effect score ([3]; mycophenolic acid AUC0–12h < 30 mg·h/L (n = 22)): 1.7 ± 0.8
- Gastrointestinal adverse effect score ([3]; mycophenolic acid AUC0–12h > 60 mg h/L (n = 34)): 3.0 ± 1.7
- Gastrointestinal adverse effect score ([3]; mycophenolic acid AUC0–12h within 30–60 mg·h/L (n = 54)): 2.2 ± 1.1
- Patients within or below the mycophenolic acid AUC0–12h target range of 30–60 mg·h/L ([4]; cyclosporine and mycophenolate mofetil, patients with no gastrointestinal adverse effects): 87%
- Patients within or below the mycophenolic acid AUC0–12h target range ([4]; cyclosporine): 88.5%
- Cmax ([4]; female, 546 mg): 21700 ± 10600 ng/mL
- Tmax ([4]; female, 546 mg): 3.16 ± 2.57 h
- Cmax ([4]; female, 591 mg): 6490 ± 2300 ng/mL
- Tmax ([4]; female, 591 mg): 2.07 ± 0.11 h
- AUC(0-t) ([4]; female, Mycophenolic acid AUC0–12h, with cyclosporine and mycophenolate mofetil, female (n = 14), steady state): 40100 ± 13800 ng·h/mL
- AUC(0-t) ([4]; female, Mycophenolic acid AUC0–12h, with tacrolimus and enteric-coated mycophenolate sodium, female (n = 29), steady state): 73400 ± 31200 ng·h/mL
- AUC ([4]; female, with cyclosporine and mycophenolate mofetil, female (n = 14)): 15400 ± 5510 ng·h/mL
- AUC ([4]; female, with tacrolimus and enteric-coated mycophenolate sodium, female (n = 29)): 29300 ± 24000 ng·h/mL
- concentration at 12 h ([4]; female, with cyclosporine and mycophenolate mofetil, female (n = 14), steady state): 2200 ± 1000 ng/mL
- concentration at 12 h ([4]; female, with tacrolimus and enteric-coated mycophenolate sodium, female (n = 29), steady state): 4300 ± 2300 ng/mL
- clearance ([4]; female, African American women receiving tacrolimus): 162 mL/min
- clearance ([4]; with cyclosporine, all patients): 342 mL/min
- clearance ([4]; with tacrolimus, all patients): 177 mL/min
- AUC(0-t) ([4]; male): 65500 ± 30600 ng·h/mL
- Cmax ([4]; male, 587 mg): 19600 ± 11200 ng/mL
- Tmax ([4]; male, 587 mg): 2.88 ± 2.06 h
- Cmax ([4]; male, 715 mg): 10300 ± 6500 ng/mL
- Tmax ([4]; male, 715 mg): 1.92 ± 1.2 h
- AUC(0-t) ([4]; male, Mycophenolic acid AUC0–12h, with cyclosporine and mycophenolate mofetil, male (n = 66), steady state): 41000 ± 18400 ng·h/mL
- AUC ([4]; male, with cyclosporine and mycophenolate mofetil, male (n = 66)): 12600 ± 7400 ng·h/mL
- AUC ([4]; male, with tacrolimus and enteric-coated mycophenolate sodium, male (n = 38)): 23800 ± 13400 ng·h/mL
- concentration at 12 h ([4]; male, with cyclosporine and mycophenolate mofetil, male (n = 66), steady state): 2100 ± 1500 ng/mL
- concentration at 12 h ([4]; male, with tacrolimus and enteric-coated mycophenolate sodium, male (n = 38), steady state): 3900 ± 2200 ng/mL
- Patients within the target mycophenolic acid AUC0–12h range of 30–60 mg h/L ([4]; men receiving cyclosporine and mycophenolate mofetil): 54.5%
- Patients exceeding the target mycophenolic acid AUC0–12h range of 30–60 mg h/L ([4]; men receiving tacrolimus and enteric-coated mycophenolate sodium): 50%
- Patients achieving target mycophenolic acid AUC0–12h of 30–60 mg·h/L ([4]; on cyclosporine and mycophenolate mofetil): 56.3%
- Patients above the mycophenolic acid AUC0–12h target of 60 mg·h/L [4, 6]: 56.7%
- Patients achieving target mycophenolic acid AUC0–12h of 30–60 mg·h/L [4, 6]: 34.3%
- Patients exceeding the mycophenolic acid AUC0–12h target range ([4]; tacrolimus and enteric-coated mycophenolate sodium, moderate to severe gastrointestinal adverse effects (score ≥ 3)): 50%
- Patients above the mycophenolic acid AUC0–12h target range ([4]; tacrolimus and enteric-coated mycophenolate sodium, patients with no gastrointestinal adverse effects): 78.6%
- Lymphopenic patients with mycophenolic acid AUC0–12h > 60 mg·h/L ([4]; tacrolimus-based regimen (22 of 35)): 62.9%
- Patients within or below the mycophenolic acid AUC0–12h target range ([4]; tacrolimus): 53.8%
- Mycophenolic acid dose-normalized AUC0–12h ([4]; with cyclosporine and mycophenolate mofetil, female (n = 14)): 0.066 ± 0.015 mg·h/L/mg
- Mycophenolic acid dose-normalized AUC0–12h ([4]; with cyclosporine and mycophenolate mofetil, male (n = 66)): 0.058 ± 0.032 mg·h/L/mg
- Mycophenolic acid dose-normalized AUC0–12h ([4]; with tacrolimus and enteric-coated mycophenolate sodium, female (n = 29)): 0.127 ± 0.053 mg·h/L/mg
- Mycophenolic acid dose-normalized AUC0–12h ([4]; with tacrolimus and enteric-coated mycophenolate sodium, male (n = 38)): 0.103 ± 0.045 mg·h/L/mg
- Patients within the target mycophenolic acid AUC0–12h range of 30–60 mg h/L ([4]; women receiving cyclosporine and mycophenolate mofetil): 64.3%
- Patients exceeding the target mycophenolic acid AUC0–12h range of 30–60 mg h/L ([4]; women receiving tacrolimus and enteric-coated mycophenolate sodium): 65.5%
- Enterohepatic circulation, frequency ([5]; with cyclosporine): 45%
- Enterohepatic circulation, frequency ([5]; with tacrolimus): 78%
- Enterohepatic circulation, frequency ([5]; with tacrolimus, listed as mycophenolic acid): More than 75%

SMILES: COc1c(C)c2c(c(O[C@@H]3O[C@H](C(=O)O)[C@@H](O)[C@H](O)[C@H]3O)c1C/C=C(\C)CCC(=O)O)C(=O)OC2 [Mycophenolic acid glucuronide]
- Mycophenolic acid glucuronide AUC0–12h, fold higher in women than men ([4]; tacrolimus group): 1.37 fold
- Mycophenolic acid glucuronide AUC0–12h [4, 7]: 1068 ± 557 mg·h/L
- Mycophenolic acid glucuronide CP(12h) [4, 7]: 75.1 ± 45.2 mg/L
- Mycophenolic acid glucuronide Cmax [4, 7]: 126000 ± 60000 ng/mL
- Mycophenolic acid glucuronide tmax [4, 7]: 3.68 ± 2.45 h
- Mycophenolic acid glucuronide AUC0–12h [4, 8]: 780 ± 336 mg·h/L
- Mycophenolic acid glucuronide CP(12h) [4, 8]: 54.5 ± 28.0 mg/L
- Mycophenolic acid glucuronide Cmax [4, 8]: 96700 ± 47700 ng/mL
- Mycophenolic acid glucuronide tmax [4, 8]: 3.89 ± 1.76 h
